Assay results reported in ChEMBL document CHEMBL4339191 (J Med Chem, 2019).
Where a chain is given by its changes, count along the chain named. Values belong to the compound of their own block, whether it stands above or below them.

What was measured:
[1] = target: T1, Aldo-keto reductase family 1 member C1 (Homo sapiens, UniProt Q04828); assay: Inhibition of recombinant human AKR1C1 expressed in Escherichia coli BL21 […] at 100 uM using S-tetralol as substrate in presence of NADP+ by UV-spectrophotometric method relative to control
T1 sequence (Q04828 whole entry): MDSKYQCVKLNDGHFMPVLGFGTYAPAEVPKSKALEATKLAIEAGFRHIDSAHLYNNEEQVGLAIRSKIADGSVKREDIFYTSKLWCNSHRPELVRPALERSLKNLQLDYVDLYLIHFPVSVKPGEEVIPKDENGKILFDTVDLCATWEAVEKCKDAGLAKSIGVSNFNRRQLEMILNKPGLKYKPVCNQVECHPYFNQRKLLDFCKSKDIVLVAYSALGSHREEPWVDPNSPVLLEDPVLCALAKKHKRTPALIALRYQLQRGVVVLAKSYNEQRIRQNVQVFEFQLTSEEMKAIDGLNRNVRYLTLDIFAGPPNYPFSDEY

AKR1C2 = target: T2, AKR1C2 (Homo sapiens, UniProt P52895); assay: in vitro; conditions: probe S-tetralol
T2 sequence (P52895 whole entry): T1 sequence (Q04828 whole entry) with T38V, R47H, L54V, C87S, V151M, R170H, Q172L
Description: Inhibition of recombinant human AKR1C2 expressed in Escherichia coli BL21 (D3) at 200 uM using S-tetralol as substrate in presence of NADP+ by UV-spectrophotometric method relative to control

AKR1C1 = target: T3, AKR1C1 (Homo sapiens, UniProt Q04828); assay: in vitro; conditions: probe S-tetralol
T3 sequence (Q04828 whole entry): T1 sequence (Q04828 whole entry)
Description: Inhibition of recombinant human AKR1C1 expressed in Escherichia coli BL21 (D3) at 200 uM using S-tetralol as substrate in presence of NADP+ by UV-spectrophotometric method relative to control

[2] = target: T4, Aldo-keto reductase family 1 member C3 (Homo sapiens, UniProt P42330)
T4 sequence (P42330 whole entry): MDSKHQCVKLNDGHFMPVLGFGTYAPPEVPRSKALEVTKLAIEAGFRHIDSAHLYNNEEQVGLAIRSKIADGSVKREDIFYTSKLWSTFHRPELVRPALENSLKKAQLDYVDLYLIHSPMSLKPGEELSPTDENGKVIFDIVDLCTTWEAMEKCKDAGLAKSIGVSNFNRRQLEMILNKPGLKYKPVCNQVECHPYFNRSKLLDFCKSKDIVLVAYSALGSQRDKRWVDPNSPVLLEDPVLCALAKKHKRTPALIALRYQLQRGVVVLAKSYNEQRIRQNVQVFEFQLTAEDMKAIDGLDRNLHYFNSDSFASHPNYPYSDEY
Description: Inhibition of recombinant full-length human N-terminal His6-tagged AKR1C3 expressed in Escherichia coli BL21 (DE3) using phenanthrenequinone as substrate in presence of NADPH generating system

SMILES: CC(C)=CCc1cc(/C=C/C(=O)O)cc(C(=O)NCc2cccc(OC(F)(F)F)c2)c1
- inhibition at 200 µM (AKR1C1): 10.6%

SMILES: CC/C=C\C[C@H]1C(=O)CC[C@@H]1CC(=O)O [JASMONIC ACID]
- Ki [2]: 24 µM

Further lines, results first:

- inhibition (INH) [1]: Not Active
SMILES: CC(C)=CCc1cc(/C=C/C(=O)O)cc(C(=O)NCc2ccc(N(C)C)cc2)c1

- inhibition at 200 µM (AKR1C2): 66.5%
SMILES: CC(C)=CCc1cc(/C=C/C(=O)O)cc(C(=O)NCc2ccc(C)cc2)c1

- inhibition (INH) [1]: Not Active
SMILES: COc1ccc(CNC(=O)c2cc(/C=C/C(=O)O)cc(CC=C(C)C)c2)cc1
